In PubChem BioAssay AID2060490 (Molecular Pharmacology Branch, DTP, NCI, 2025):
“And” between values parts separate entries of the source, which are not always exact repeats. Equal values may be shown once.

System: 885512-296-R-J2-PDC complex spheroid viability
Assay: Anticancer human tumor 885512-296-R-J2-PDC patient-derived breast carcinoma cell line growth inhibition [GQUAD]
Settings: for viability, T/C: stronger effect = lower value
Source text: DNA G-quadruplex Stabilizer Agents in Combinations in Complex Spheroids
A high-throughput screen of multi-cell type tumor spheroids was designed to identify active combinations of DNA G-quadruplex stabilizer agents and targeted small molecules. Complex spheroids include a stromal component modeled by human endothelial cells (HUVEC) and fibroblasts modeled by human mesenchymal stem cells (MSCs). The concentration ranges selected for each drug and investigational agent were based upon clinically achievable concentrations if the clinical Cmax of the agent was known.
Compounds. The drugs and investigational agents: pidnarulex (CX-5461; NSC782164), APTO-253 (NSC789042), BRACO-19 (NSC847499), peposertib (NSC802822), ceralasertib (NSC780249), elimusertib (NSC800525), camonsertib (NSC841442), AZD-1390 (NSC803789), olaparib (NSC753686), talazoparib (NSC767125), ART-558 (NSC835418), sotorasib (NSC818433), MRTX-1133 (NSC836407), SN-38 (NSC673596), topotecan (NSC609699), etoposide (NSC141540), doxorubicin (NSC123127), gemcitabine (NSC613327), 5-fluorouracil (NSC19893), paclitaxel (NSC125973), vemurafenib (NSC761431), panobinostat (NSC761190), R-306465 (JNJ-16241199; NSC773264), adavosertib (NSC754352), TP-3654 (NSC805149), carboplatin (NSC241240), KSQ-4279 (NSC840948), and staurosporine (NSC755774) were obtained from the National Cancer Institute (NCI) Developmental Therapeutics Program Chemical Repository (34). The FDA-approved anticancer drug set is available from the NCI Developmental Therapeutics Program. […] The stock solutions were prepared in dimethyl sulfoxide (DMSO, Sigma-Aldrich, St. Louis, MO, cat. D2650) at 800-fold the tested concentration and stored at -70 degrees C prior to their use. All drugs and investigational agents were tested over a range starting from a high concentration at or near the clinical Cmax and decreasing in half-log increments. If the clinical Cmax for an agent had not been determined, the highest concentration tested was 10 microM.
2.3 Cell Culture. All cells were maintained in an incubator at 37 degrees C and 5% CO2 with 95% humidity. The PDC lines were cultured according to standard operating procedures established by the NCI PDMR. All PDCs were thawed and cultured in Matrigel-coated flasks prepared with a working solution of 1X Ham's F-12 nutrient mix, without supplementation (Invitrogen, cat. 11765054), 100 U/mL penicillin-streptomycin (Invitrogen, cat. 15140122), and 2.5% Matrigel (Corning Inc., cat. 354248) for the first three passages. The 857933-349-R-J2-PDC line was cultured in 6C/Colon 1B media, which includes advanced DMEM/F-12 (Thermo Fisher Scientific, cat. 12634028), 10 mM HEPES (Thermo Fisher Scientific, cat. 15630080), 1X GlutaMAX supplement (Thermo Fisher Scientific, cat. 35050061), 0.1 mg/mL primocin (InvivoGen, cat. ant-pm-2), 10% defined fetal bovine serum, heat inactivated (HyClone Laboratories Inc., cat. SH30070.03HI), 50% L-WRN conditioned media (ATCC, cat. CRL-3276), 1.25 mM N-Acetyl-L-cysteine (Sigma-Aldrich, cat. A9165), 10 mM nicotinamide (Sigma-Aldrich, cat. N0636), 1X B-27 supplement (Thermo Fisher Scientific, cat. 17504044), 1X N-2 supplement (Thermo Fisher Scientific, cat. 17502048), 10 microM Y-27632 dihydrochloride (Tocris Bioscience, cat. 1254), and 50 ng/mL human EGF recombinant protein (Thermo Fisher Scientific, cat. PHG0311). The 485176-168-R4-J1-PDC line was cultured in Panc media, which includes all 6C/Colon 1B media components plus 100 ng/mL human FGF-10 (Thermo Fisher Scientific, cat. 100-26), 500 nM SB-431542 (Selleckchem, cat. S1067), and gastrin (Tocris, cat. 3006).
[…]

[1] = curve of first compound, second compound 0.0316 µM
[2] = curve of first compound, second compound 0.1 µM
[3] = curve of first compound, second compound 0.316 µM
[4] = curve of first compound, second compound 1 µM
[5] = curve of first compound, second compound 3.16 µM
[6] = curve of first compound, second compound 10 µM
[7] = second compound 0.0316 µM, first compound 0.0316 µM
[8] = second compound 0.0316 µM, first compound 0.1 µM
[9] = second compound 0.0316 µM, first compound 0.316 µM
[10] = second compound 0.0316 µM, first compound 1 µM
[11] = second compound 0.0316 µM, first compound 3.16 µM
[12] = second compound 0.0316 µM, first compound 10 µM
[13] = second compound 0.1 µM, first compound 0.0316 µM
[14] = second compound 0.1 µM, first compound 0.1 µM
[15] = second compound 0.1 µM, first compound 0.316 µM
[16] = second compound 0.1 µM, first compound 1 µM
[17] = second compound 0.1 µM, first compound 3.16 µM
[18] = second compound 0.1 µM, first compound 10 µM
[19] = second compound 0.316 µM, first compound 0.0316 µM
[20] = second compound 0.316 µM, first compound 0.1 µM
[21] = second compound 0.316 µM, first compound 0.316 µM
[22] = second compound 0.316 µM, first compound 1 µM
[23] = second compound 0.316 µM, first compound 3.16 µM
[24] = second compound 0.316 µM, first compound 10 µM
[25] = second compound 1 µM, first compound 0.0316 µM
[26] = second compound 1 µM, first compound 0.1 µM
[27] = second compound 1 µM, first compound 0.316 µM
[28] = second compound 1 µM, first compound 1 µM
[29] = second compound 1 µM, first compound 3.16 µM
[30] = second compound 1 µM, first compound 10 µM
[31] = second compound 3.16 µM, first compound 0.0316 µM
[32] = second compound 3.16 µM, first compound 0.1 µM
[33] = second compound 3.16 µM, first compound 0.316 µM
[34] = second compound 3.16 µM, first compound 1 µM
[35] = second compound 3.16 µM, first compound 3.16 µM
[36] = second compound 3.16 µM, first compound 10 µM
[37] = second compound 10 µM, first compound 0.0316 µM
[38] = second compound 10 µM, first compound 0.1 µM
[39] = second compound 10 µM, first compound 0.316 µM
[40] = second compound 10 µM, first compound 1 µM
[41] = second compound 10 µM, first compound 3.16 µM
[42] = second compound 10 µM, first compound 10 µM
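Further: spheroids exposed to the compounds for one week.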
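Wherever viability, T/C is given: percent of tumor spheroid viability relative to DMSO vehicle control wells.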

Work on `CCCS(=O)(=O)Nc1ccc(F)c(C(=O)c2c[nH]c3ncc(-c4ccc(Cl)cc4)cc23)c1F` + CN(C)c1ccc(Nc2c3ccc(NC(=O)CCN4CCCC4)cc3nc3cc(NC(=O)CCN4CCCC4)ccc23)cc1 yielded an IC50 [1] of 8.18 µM, an IC50 [2] of 7.89 µM and an IC50 [3] of 8.45 µM. For the same compound, the IC50 [4] was 6.7 µM, the IC50 [5] was 3.75 µM and the IC50 [6] was < 0.0316 µM. It also gave a viability, T/C [7] of 105%, a viability, T/C [8] of 90% and a viability, T/C [9] of 109%. The viability, T/C [10] was 104%, the viability, T/C [11] was 106% and the viability, T/C [12] was 38.9%. For the same compound, the viability, T/C [13] was 101%, the viability, T/C [14] was 119% and the viability, T/C [15] was 124%. It also gave a viability, T/C [16] of 117%, a viability, T/C [17] of 89% and a viability, T/C [18] of 39.8%. The viability, T/C [19] was 118%, the viability, T/C [20] was 102% and the viability, T/C [21] was 111%. The viability, T/C [22] was 104%, the viability, T/C [23] was 104% and the viability, T/C [24] was 40.7%. It also gave a viability, T/C [25] of 95%, a viability, T/C [26] of 102% and a viability, T/C [27] of 103%. The viability, T/C [28] was 94.1%, the viability, T/C [29] was 119% and the viability, T/C [30] was 21.9%. The viability, T/C [31] was 117%, the viability, T/C [32] was 104% and the viability, T/C [33] was 126%. It also gave a viability, T/C [34] of 111%, a viability, T/C [35] of 57.6% and a viability, T/C [36] of 6.03%. The viability, T/C [37] was 17.6%, the viability, T/C [38] was 16.4% and the viability, T/C [39] was 15.7%. For the same compound, the viability, T/C [40] was 14.2%, the viability, T/C [41] was 8.35% and the viability, T/C [42] was 1.3%.
For `O=C(NO)c1cnc(N2CCN(S(=O)(=O)c3ccc4ccccc4c3)CC2)nc1` + CN(C)c1ccc(Nc2c3ccc(NC(=O)CCN4CCCC4)cc3nc3cc(NC(=O)CCN4CCCC4)ccc23)cc1, the IC50 [1] was 0.136 µM, the IC50 [2] was 0.16 µM and the IC50 [3] was 0.152 µM. The IC50 [4] was 0.149 µM, the IC50 [5] was 0.1 µM and the IC50 [6] was < 0.0316 µM. The viability, T/C [7] was 89.6%, the viability, T/C [8] was 61.1% and the viability, T/C [9] was 20%. For the same compound, the viability, T/C [10] was 3.35%, the viability, T/C [11] was 0.33% and the viability, T/C [12] was 0.17%. For the same compound, the viability, T/C [13] was 90.8%, the viability, T/C [14] was 67.4% and the viability, T/C [15] was 25.1%. For the same compound, the viability, T/C [16] was 3.87%, the viability, T/C [17] was 0.15% and the viability, T/C [18] was 0.11%. For the same compound, the viability, T/C [19] was 84.1%, the viability, T/C [20] was 63.9% and the viability, T/C [21] was 25.8%. The viability, T/C [22] was 3.96%, the viability, T/C [23] was 0.19% and the viability, T/C [24] was 0.24%. It also gave a viability, T/C [25] of 74.8%, a viability, T/C [26] of 65.2% and a viability, T/C [27] of 21.4%. It also gave a viability, T/C [28] of 5.44%, a viability, T/C [29] of 0.13% and a viability, T/C [30] of 0.56%. It also gave a viability, T/C [31] of 60.2%, a viability, T/C [32] of 50.6% and a viability, T/C [33] of 21.1%. The viability, T/C [34] was 5.9%, the viability, T/C [35] was 0.29% and the viability, T/C [36] was 0.11%. For the same compound, the viability, T/C [37] was 15.4%, the viability, T/C [38] was 15.4% and the viability, T/C [39] was 9.93%. It also gave a viability, T/C [40] of 3.09%, a viability, T/C [41] of 0.66% and a viability, T/C [42] of 0.31%.
In the case of `CC(C)(O)C1CCC(Nc2ccc3ncc(-c4cccc(C(F)(F)F)c4)n3n2)CC1` (stereo unspecified), the viability, T/C (compound 0.0316 µM) is reported as 102% and 97.2% and 101%, the viability, T/C (compound 0.1 µM) is reported as 93.2% and 94.8% and 101% and the viability, T/C (compound 0.316 µM) is reported as 95.9% and 90.2% and 100%. The viability, T/C (compound 1 µM) was 89.1% and 67.6% and 76.8%, the viability, T/C (compound 3.16 µM) was 102% and 16.3% and 16.4% and the viability, T/C (compound 10 µM) was 84.3% and 28.2% and 20.7%. For the same compound, the IC50 (curve of compound) was > 10 µM and 1.56 µM and 1.7 µM.
